“Also recorded” adds a separate entry of the source.
Experiments:
[1] = tested on: Japanese medaka (Oryzias latipes); assay: Fish short-term reproduction assay (FSTRA, OECD TG229), 21-day flow-through exposure; details: for GSI Female / HSI Female / Length Female / Weight Female / GSI Male / HSI Male / Length Male / Weight Male: at completion of exposure; for Fertility rate (%) / Mortality (%) Female / Mortality (%) Male / Number of fertilized eggs / Number of total eggs / SSC Female / SSC Male / VTG (ng/mg of liver) Female / VTG (ng/mg of liver) Male: 21 days
Method: The experimental studies on the FSTRA for the 16 chemicals were conducted in two laboratories in Japan, the National Institute for Environmental Studies (NIES, Lab‐1) and the Institute of Environmental Ecology, IDEA Consultants Inc. (Lab‐2), in accordance with OECD TG229 (OECD, [2012a]) (Table 1).
The NIES‐R strain of Japanese medaka (O. latipes), one of the orange‐red varieties, was used in all the 16 chemical studies. For the studies, healthy and mature male and female medakas at 16 ± 2 weeks old were selected from a single‐stock population, which were bred within the test facilities. The test fish were maintained in conditions similar to the assay for at least 7 days, and spawning status was checked during the acclimation period. On the day the chemical exposure commenced, to ensure balanced distribution of test fish between the treatment groups for the reproductive status of the fish, the replicate vessels (fish tanks), with each containing three male and female medaka, were distributed to each treatment and control group, for example, by a randomized block design based on the number of fertilized eggs laid in the last 5–7 days during the acclimation, in each assay.
The water solubility of the test chemical was also taken into consideration when deciding the highest test concentration. To set the lower concentrations, a spacing factor ranging between two and five was used. All assays included a dilution water control (DWC).
Test solutions at the selected concentrations were prepared by diluting a stock solution, which was prepared by an adequate method depending on the physicochemical properties of the test chemicals, for example, by simply mixing the test chemical in dilution water by stirring and/or sonicating for an appropriate time or by using a solid–liquid saturator. In the two laboratories, flow‐through exposure systems, in which a series of test solutions at the target concentrations can be continuously prepared and delivered to test vessels at controlled flow rates (Haselman et al., [2016]; Watanabe et al., [2017]), were used for the exposure experiments.
In the FSTRA, three mature adult males and females in a test vessel were exposed together to the test chemicals in flow‐through condition for 3 weeks. In all the assays, each treatment group, including the DWC group, contained four replicate tanks. During the exposure period, the fish were fed a sufficient amount of live brine shrimp nauplii (newly hatched Artemia sp.) for daily spawning ad libitum. Fecal material in the tanks was appropriately removed by siphoning after feeding. Water temperature of test solutions was recorded for at least one vessel in each treatment and control group every day and for all vessels at least once a week. Furthermore, dissolved oxygen and pH of test solutions were measured for all test vessels at least once a week. Mortality and abnormal behavior and appearance in the fish exposed to test chemicals were daily observed, and any fish that died were removed from the tank as soon as possible. To assess the reproductive status, all eggs females spawned were collected every day. At the completion of the chemical exposure, surviving fish in each tank were sampled.
The eggs females released on the bottom of the tank were collected by siphoning, and the egg clutches still on female abdomen were carefully picked from the body of the females captured using a small net. All the eggs collected were microscopically observed and separately counted for fertilized and unfertilized.

[2] = biological target: T1, medaka Esr1 (mEsr1) (Oryzias latipes, UniProt P50241); assay: Medaka Esr1 reporter gene assay (RGA), antagonist assay with 1 nM E2, HEK293 cells; type: cell-based, Japanese medaka (Oryzias latipes)
T1 construct: expressed in transfected cells; host or cells: HEK293 (human embryonic kidney cells), transient transfection with FuGENE HD
T1 sequence (P50241 1-620): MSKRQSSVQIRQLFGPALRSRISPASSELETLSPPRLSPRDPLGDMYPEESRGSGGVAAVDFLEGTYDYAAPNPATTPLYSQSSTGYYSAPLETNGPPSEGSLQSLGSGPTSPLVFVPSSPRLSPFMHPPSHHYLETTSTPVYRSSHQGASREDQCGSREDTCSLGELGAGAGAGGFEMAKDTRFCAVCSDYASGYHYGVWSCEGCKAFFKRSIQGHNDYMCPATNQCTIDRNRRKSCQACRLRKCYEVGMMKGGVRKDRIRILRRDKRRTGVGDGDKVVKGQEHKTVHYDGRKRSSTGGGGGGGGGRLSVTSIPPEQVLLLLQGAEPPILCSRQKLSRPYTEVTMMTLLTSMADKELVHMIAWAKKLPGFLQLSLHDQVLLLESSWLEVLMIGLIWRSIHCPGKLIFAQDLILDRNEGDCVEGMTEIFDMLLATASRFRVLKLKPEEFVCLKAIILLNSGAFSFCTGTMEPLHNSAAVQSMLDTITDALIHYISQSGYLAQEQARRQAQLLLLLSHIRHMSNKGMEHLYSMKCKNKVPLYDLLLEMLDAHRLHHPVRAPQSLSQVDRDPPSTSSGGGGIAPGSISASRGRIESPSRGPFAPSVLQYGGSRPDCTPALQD
Method: To support interpretation of the biological effects observed in the FSTRA studies, in vitro RGAs using medaka Esr1 (mEsr1) and medaka ARβ (mARβ) were performed for the 16 test chemicals. In the present study, Esr1 and ARβ, which are ancestral subtypes among Esrs and ARs in Japanese medaka, were selected based on the phylogenetical analyses of Esr and AR with each receptor RGAs (Ogino et al., [2016], [2018]; Tohyama et al., [2015]).
The mEsr1 RGA consisting of agonist and antagonist assays were performed according to the methods previously reported (Katsu et al., [2010]; Lange et al., [2012]; Miyagawa et al., [2014]). Briefly, human embryonic kidney cells 293 (HEK293), precultured, were seeded in 96‐well plates at 15,000 cells/well with 200 μl of culture medium, phenol‐red‐free Dulbecco's Modified Eagle's medium (ThermoFisher Scientific K.K., Tokyo, Japan) supplemented with 2‐mM L‐glutamine and 10% charcoal/dextran‐treated fetal bovine serum (Hyclone, UT, USA), and then incubated for 24 h in 5% CO2 at 37°C. After the 24‐h incubation, 20 μl of test medium containing 40 ng of medaka Esr1/pcDNA3.1, 80 ng of ERE‐TK‐Luc, and 20 ng of pRL‐TK‐Rlu and 1.2 μL of transfection reagent FuGENE HD (Promega, WI, USA) were added into each well. The assay plates were incubated for another 4 h in order to transfect the three vectors into the HEK293 cells. After the vectors were successfully transfected, in agonist assay, 24 μl of concentrated test chemical solution was applied to the test medium in the plate wells. […] After chemical treatment for 40 h, luciferase activity of the cells was measured, and the promoter activity was calculated as firefly (Photinus pyralis)‐/sea pansy (Renilla reniformis)‐luciferase activity in each well. The luciferase activities were quantified by a chemiluminescence assay with Dual‐Luciferase Reporter Assay System (Promega) in accordance with the manufacturer's instructions, and luminescence intensity of firefly and sea pansy luciferin was measured using a luminometer, TriStar LB941 (Berthold Technology, Oak Ridge, TN, USA).
Effect concentrations, that is, EC50 (a half maximal effective concentration) in the agonist assay and IC50 (a half maximal inhibitory concentration) in the antagonist assay, were estimated by nonlinear curve fitting (e.g., three parameters logistic regression curve) using GraphPad Prism (GraphPad Software Inc., La Jolla, CA, USA).

CCCN(CCOc1c(Cl)cc(Cl)cc1Cl)C(=O)n1ccnc1 [PCL, Prochloraz] was tested, and the “effect on fertility rate, in words” value ([1]; 21-day exposure) was “significant decrease; also recorded: significant reduction”, the “GSI Female” value ([1]; measured conc. 20.6 μg/L) was 10.2% and the “HSI Female” value ([1]; measured conc. 20.6 μg/L) was 4.2%. For the same compound, the “Length Female” value ([1]; measured conc. 20.6 μg/L) was 35.0 mm, the “Weight Female” value ([1]; measured conc. 20.6 μg/L) was 547 mg and the “GSI Female” value ([1]; measured conc. 44.9 μg/L) was 11.1%. The “HSI Female” value ([1]; measured conc. 44.9 μg/L) was 4.5%, the “Length Female” value ([1]; measured conc. 44.9 μg/L) was 36.5 mm and the “Weight Female” value ([1]; measured conc. 44.9 μg/L) was 591 mg. For the same compound, the “LOEC for decrease of VTG in females” value ([1]; hepatic VTG, 21-day exposure, measured conc.) was 44.9 µg/L, the “GSI Male” value ([1]; measured conc. 20.6 μg/L) was 1.26% and the “HSI Male” value ([1]; measured conc. 20.6 μg/L) was 1.7%. For the same compound, the “Length Male” value ([1]; measured conc. 20.6 μg/L) was 34.4 mm, the “Weight Male” value ([1]; measured conc. 20.6 μg/L) was 408 mg and the “GSI Male” value ([1]; measured conc. 44.9 μg/L) was 1.16%. For the same compound, the “HSI Male” value ([1]; measured conc. 44.9 μg/L) was 1.7%, the “Length Male” value ([1]; measured conc. 44.9 μg/L) was 34.3 mm and the “Weight Male” value ([1]; measured conc. 44.9 μg/L) was 415 mg. The “Fertility rate (%)” value ([1]; measured conc. 20.6 μg/L) was 94%, the “Mortality (%) Female” value ([1]; measured conc. 20.6 μg/L) was 0% and the “Mortality (%) Male” value ([1]; measured conc. 20.6 μg/L) was 0%. For the same compound, the “Number of fertilized eggs” value ([1]; measured conc. 20.6 μg/L) was 37, the “Number of total eggs” value ([1]; measured conc. 20.6 μg/L) was 39 ± 4.5 /female/day and the “SSC Female” value ([1]; measured conc. 20.6 μg/L) was 0 ± 0. For the same compound, the “SSC Male” value ([1]; measured conc. 20.6 μg/L) was 103 ± 15, the “VTG (ng/mg of liver) Female” value ([1]; measured conc. 20.6 μg/L) was 289 ± 57 ng/mg of liver and the “VTG (ng/mg of liver) Male” value ([1]; measured conc. 20.6 μg/L) was 2.6 ± 2.0 ng/mg of liver. For the same compound, the “Fertility rate (%)” value ([1]; measured conc. 44.9 μg/L) was 84%, the “Mortality (%) Female” value ([1]; measured conc. 44.9 μg/L) was 0% and the “Mortality (%) Male” value ([1]; measured conc. 44.9 μg/L) was 0%. The “Number of fertilized eggs” value ([1]; measured conc. 44.9 μg/L) was 28, the “Number of total eggs” value ([1]; measured conc. 44.9 μg/L) was 34 ± 5.5 /female/day and the “SSC Female” value ([1]; measured conc. 44.9 μg/L) was 0 ± 0. For the same compound, the “SSC Male” value ([1]; measured conc. 44.9 μg/L) was 93 ± 13, the “VTG (ng/mg of liver) Female” value ([1]; measured conc. 44.9 μg/L) was 173 ± 53 ng/mg of liver and the “VTG (ng/mg of liver) Male” value ([1]; measured conc. 44.9 μg/L) was 1.2 ± 1.2 ng/mg of liver. The “effect on fecundity (number of total eggs), in words” value ([1]; within the test concentrations, 21-day exposure) was “No effect” and the IC50 [2] was greater than 10 µM.

From PMC8359193, “Summary of reference chemicals evaluated by the fish short‐term reproduction assay, OECD TG229, using Japanese Medaka, Oryzias latipes” (Journal of Applied Toxicology, 2021)
